Source: ChEMBL document CHEMBL1138135, “L-dopa- and dopamine-(R)-alpha-lipoic acid conjugates as multifunctional codrugs with antioxidant properties” (J Med Chem, 2006)
In brackets after ≈: the same amount, converted by molar mass. Activity calls are given as the source filed them. The rule behind the calls is not given here.

Assays:
[1] = Solubility in water; assay type: physicochemical
[2] = Aqueous solubility at pH 7.4; assay type: physicochemical; conditions: buffer
[3] = Aqueous solubility at pH 1.3; assay type: physicochemical; conditions: buffer
[4] = Partition co-efficient, log P of the compound; assay type: physicochemical; conditions: octanol/water
[5] = Aqueous solubility at pH 5.0; assay type: physicochemical; conditions: buffer
Rattus norvegicus [6] = experiment: Decrease in plasmatic superoxide dismutase activity after 1 hr and 3 hrs of administration of 132.64 mg/kg to Wistar rats; assay type: functional, organism-based; parameters: dose 132.64 mg/kg
Rattus norvegicus [7] = experiment: Increase in plasmatic Glutathione peroxidase activity after 1 hr of administration of 132.64 mg/kg to Wistar rats; assay type: functional, organism-based; parameters: dose 132.64 mg/kg
Rattus norvegicus [8] = experiment: Increase in plasmatic Glutathione peroxidase activity after 3 hrs of administration of 132.64 mg/kg to Wistar rats; assay type: functional, organism-based; parameters: dose 132.64 mg/kg
Rattus norvegicus [9] = experiment: Decrease in grooming behavior of Wistar rats after 2 hrs of administration of 132.64 mg/kg; assay type: functional, organism-based; parameters: dose 132.64 mg/kg
Rattus norvegicus [10] = experiment: Decrease in plasmatic superoxide dismutase activity after 1 hr and 3 hrs of administration of 160.54 mg/kg to Wistar rats; assay type: functional, organism-based; parameters: dose 160.54 mg/kg
Rattus norvegicus [11] = experiment: Increase in plasmatic Glutathione peroxidase activity after 1 hr of administration of 160.54 mg/kg to Wistar rats; assay type: functional, organism-based; parameters: dose 160.54 mg/kg
Rattus norvegicus [12] = experiment: Decrease in grooming behavior of Wistar rats after 1 hr of administration of 160.54 mg/kg; assay type: functional, organism-based; parameters: dose 160.54 mg/kg

Row | solubility [1] | solubility [2] | solubility [3] | logP [4] | solubility [5] | SMILES | Activity (Rattus norvegicus [6]) | Activity (Rattus norvegicus [7]) | Activity (Rattus norvegicus [8]) | Activity (Rattus norvegicus [9]) | Activity (Rattus norvegicus [10]) | Activity (Rattus norvegicus [11]) | Activity (Rattus norvegicus [12])
1 | 0.36 µg/mL (≈ 1.05 µM) | 1.1 µg/mL (≈ 3.22 µM) | 0.87 µg/mL (≈ 2.55 µM) | 3.4 |  | O=C(CCCC[C@@H]1CCSS1)NCCc1ccc(O)c(O)c1 |  |  |  |  |  |  | 
2 | 49 µg/mL (≈ 115 µM) | 52 µg/mL (≈ 122 µM) | 0.47 µg/mL (≈ 1.1 µM) | 3.65 | 47 µg/mL (≈ 110 µM) | CC(=O)Oc1ccc(CCNC(=O)CCCC[C@@H]2CCSS2)cc1OC(C)=O |  |  |  |  |  |  | 
3 | 12 µg/mL (≈ 30 µM) | 13 µg/mL (≈ 32.5 µM) |  | 2.16 | 11 µg/mL (≈ 27.5 µM) | COC(=O)[C@H](Cc1ccc(O)c(O)c1)NC(=O)CCCC[C@@H]1CCSS1 | Active | Active | Active | Active |  |  | 
4 | 233 µg/mL (≈ 482 µM) | 38 µg/mL (≈ 78.6 µM) | 39 µg/mL (≈ 80.6 µM) | 2.77 | 24 µg/mL (≈ 49.6 µM) | COC(=O)[C@H](Cc1ccc(OC(C)=O)c(OC(C)=O)c1)NC(=O)CCCC[C@@H]1CCSS1 |  |  |  |  | Active | Active | Active
